“And” between values parts separate entries of the source, which are not always exact repeats. Equal entries are not always repeated.
Assays:
murine B16 melanoma = assay: Antitumor effect in murine B16 melanoma model, tumor size and tumor weight (Example 2); format: in vivo, C57BL/6 mice; details: for Tumor volumes (cm^3) on Day 15: Length × Width × Width/2; for Tumor measurements L / Tumor measurements W / Tumor volumes: DTIC 50 mg/kg
Experimental: As per aseptic tissue culture procedures, one vial of B16 melanoma cells (supplied by Cell Culture Center of CAMS) was thawed and centrifuged at 1000 rpm, 20-25° C. for 5 minutes. The cell pellets were suspended in 0.1-0.5 mL normal saline (NS) and subcutaneously injected into the right axilla of each mouse (approximately 1×10^6 cells/mouse). When the tumor diameter was 1 cm approximately (measured by vernier caliper), the animals were euthanized with CO2 asphyxiation and the tumor was excised. Tumor cells were suspended in normal saline as previously described and the cell adaptation cycle was repeated once.
On Day 0, 1×10^6 B16 cells in a volume of 0.1 mL normal saline were subcutaneously injected into the right axillary area of the mouse. The day of tumor inoculation was defined as Day 0.
Dosing was initiated on Day 1.
Observations were recorded daily for mortality and moribundity. […] The tumors were excised, separated, and weighed.
Tumor volume was calculated using the following formula: Tumor Volume=Length×Width×Width/2 Tumor volume inhibition rate (IR) was calculated according to the formula: IR(TV)=(TVvehicle−TVdrug treated)/TVvehicle×100% TV is the tumor volume on the day of measurement.
The antitumor effect of the test article was also evaluated by tumor weight. The tumor weight of each mouse was recorded after euthanasia, and the inhibition rate of tumor weight was calculated according to the formula: IR(TW)=(Tumor weightvehicle−Tumor weightdrug treated)/Tumor weightvehicle×100%

B16 melanoma = B16 melanoma tumor growth, tumor weight and survival in C57/Bl6 mice, i.p. treatment (Example 1); format: in vivo; details: DTIC 50 mg/kg i.p.
Experimental: Tumors were induced by injecting 1×10^6 B16 melanoma cells subcutaneously in the hind leg of C57/Bl6 syngeneic mice. Mice were randomized into 5 groups of 10 animals and treated with SCV-07 at doses of 0.001, 0.01, or 0.10 mg/kg administered daily i.p. for 3 consecutive days for 2 weeks, starting 3 days after tumor implantation. Control groups were treated with saline or dacarbazine (DTIC) at a dose of 50 mg/kg i.p. for 3 days. Tumor growth was assessed every 3 days by a caliper and tumor weight was measured upon death.
Mice were injected with B16 melanoma cells and divided into 5 groups of 10 mice each. Control mice were given injections of saline or dacarbazine (DTIC). The effects of different doses of SCV-07 were examined with respect to tumor growth rate and survival time.

[1] = DTIC 50 mg/kg (Group 2), Day 15, individual animals F1-F5, M1-M5

CN(C)/N=N/c1[nH]cnc1C(N)=O [DTIC, Dacarbazine, reference compound]
Tumor volumes (cm^3) on Day 15 (murine B16 melanoma; DTIC 50 mg/kg (Group 2), Day 15, individual animals F1-F5, M1-M5, female animals): 0.36 cm^3 and 0.15 cm^3 and 0.11 cm^3 and 0.01 cm^3
Tumor volumes (cm^3) on Day 15 (murine B16 melanoma; DTIC 50 mg/kg (Group 2), Day 15, individual animals F1-F5, M1-M5, male animals): 0.03 cm^3 (2×) and 0.06 cm^3 and 0.17 cm^3 and 0.01 cm^3
Tumor measurements (cm) on Day 15, L (murine B16 melanoma; [1]): 0.3 cm (2×) and 0.4 cm (2×) and 0.7 cm and 0.9 cm and 0.5 cm and 1.2 cm and 0.6 cm
Tumor measurements (cm) on Day 15, W (murine B16 melanoma; [1]): 0.3 cm (2×) and 0.4 cm (2×) and 0.7 cm and 0.5 cm (2×) and 0.9 cm and 0.6 cm
Tumor weights (g) on Day 17 (murine B16 melanoma; DTIC 50 mg/kg (Group 2), Day 17, individual animals F1-F5, M1-M5, female animals): 0.70 g and 0.29 g and 0.98 g and 0.78 g and 0.5 g
Tumor weights (g) on Day 17 (murine B16 melanoma; DTIC 50 mg/kg (Group 2), Day 17, individual animals F1-F5, M1-M5, male animals): 0.46 g and 0.54 g and 0.37 g and 0.915 g and 0.18 g
Tumor Volume (Mean ± SD) (murine B16 melanoma; Day 3, DTIC 50 mg/kg/day, not measurable defined as 0): 0 cm^3
Tumor Volume (Mean ± SD) (murine B16 melanoma; Day 6, DTIC 50 mg/kg/day, not measurable defined as 0): 0 cm^3
IR (tumor volume inhibition rate) (murine B16 melanoma; Day 9, DTIC 50 mg/kg/day): 96.9%
Tumor Volume (Mean ± SD) (murine B16 melanoma; Day 9, DTIC 50 mg/kg/day): 0.001 ± 0.004 cm^3
Tumor measurements L (murine B16 melanoma; Day 9, mouse F2): 0.3 cm
Tumor measurements W (murine B16 melanoma; Day 9, mouse F2): 0.3 cm
Tumor volumes (murine B16 melanoma; Day 9, mouse F2): 0.01 cm^3
IR (tumor volume inhibition rate) (murine B16 melanoma; Day 12, DTIC 50 mg/kg/day): 98.8%
Tumor Volume (Mean ± SD) (murine B16 melanoma; Day 12, DTIC 50 mg/kg/day): 0.009 ± 0.020 cm^3
Tumor measurements L (murine B16 melanoma; Day 12, mouse F1): 0.3 cm
Tumor measurements W (murine B16 melanoma; Day 12, mouse F1): 0.3 cm
Tumor volumes (murine B16 melanoma; Day 12, mouse F1): 0.01 cm^3
Tumor measurements L (murine B16 melanoma; Day 12, mouse F3): 0.1 cm
Tumor measurements W (murine B16 melanoma; Day 12, mouse F3): 0.1 cm
Tumor volumes (murine B16 melanoma; Day 12, mouse F3): 5E−04 cm^3
Tumor measurements L (murine B16 melanoma; Day 12, mouse F4): 0.3 cm
Tumor measurements W (murine B16 melanoma; Day 12, mouse F4): 0.3 cm
Tumor volumes (murine B16 melanoma; Day 12, mouse F4): 0.01 cm^3
Tumor measurements L (murine B16 melanoma; Day 12, mouse F5): 0.1 cm
Tumor measurements W (murine B16 melanoma; Day 12, mouse F5): 0.1 cm
Tumor volumes (murine B16 melanoma; Day 12, mouse F5): 5E−04 cm^3
Tumor measurements L (murine B16 melanoma; Day 12, mouse M2): 0.5 cm
Tumor measurements W (murine B16 melanoma; Day 12, mouse M2): 0.5 cm
Tumor volumes (murine B16 melanoma; Day 12, mouse M2): 0.06 cm^3
IR (tumor volume inhibition rate) (murine B16 melanoma; Day 15, DTIC 50 mg/kg/day): 95.1%
Tumor Volume (Mean ± SD) (murine B16 melanoma; Day 15, DTIC 50 mg/kg/day): 0.095 ± 0.112 cm^3
IR (inhibition rate of tumor weight) (murine B16 melanoma; Day 17, DTIC 50 mg/kg/day): 85.0%
Tumor Weight (Mean ± SD) (murine B16 melanoma; Day 17, DTIC 50 mg/kg/day): 0.57 ± 0.27 g
MEAN TUMOR VOLUME (B16 melanoma; DAY 10 after tumor inoculation): 480 ± 13 mm^3
MEAN TUMOR VOLUME (B16 melanoma; DAY 17 after tumor inoculation): 545 ± 170 mm^3
DAY 24 % of control (inhibition in tumor growth) (B16 melanoma; DAY 24): 19%
MEAN TUMOR VOLUME (B16 melanoma; DAY 24 after tumor inoculation): 760 ± 220 mm^3
mean tumor weight lower (B16 melanoma): 15%
